Measurements published in US10981932B2, “Macrocyclic indole derivatives” (Bayer Aktiengesellschaft, priority 2016, dated 2021).
Where a name gives a salt, the structure may show the parent alone. Read-outs that look alike come from different tables or passages of the source.

Columns and labels:
[1] = target: MCL-1 (Homo sapiens, UniProt Q07820); experiment: Protein-protein interaction assay MCL-1/Noxa BH3 peptide (MCL-1 assay), TR-FRET; type: binding; settings: MBP-MCL-1 / Noxa BH3-derived peptide, median
In short: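 Inhibition values were normalized between DMSO controls with all reagents and controls lacking MCL-1. The binding competition used 1 nM MBP-MCL-1 in pH 7 Tris buffer containing 50 mM KF and 100 mM NaCl, with a 10 min compound preincubation at 22 °C.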

[2] = test system: SUDHL5; experiment: Induction of caspase-3/7 activity (Caspase-Glo 3/7), SUDHL5; type: cell-based; settings: caspase-3/7 induction, SUDHL5 cells, 3 h treatment, median
In short: (§1)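 Apoptosis induction measured as caspase-3/7 activity (Caspase-Glo 3/7) in DLBCL lines after 3 h treatment at 37 °C; EC50 derived relative to the reference compound's maximal induction, with C0 fixed at 1.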

[3] = test system: SUDHL10; experiment: Induction of caspase-3/7 activity (Caspase-Glo 3/7), SUDHL10; type: cell-based; settings: caspase-3/7 induction, SUDHL10 cells, 3 h treatment, median
In short: as §1

[4] = test system: SUDHL5; experiment: Anti-proliferative effect (CellTiter-Glo, 72 h), SUDHL5; type: cell-based; settings: SUDHL5 cells, antiproliferation, median, read-out: Antiproli SUDHL5 [M] (median)
In short: (§2)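 After seeding, one plate is read right away by CellTiter-Glo luminescence to fix time zero. The treated plates stay at 37 °C in humidified air for 72 h and are then measured with the same reagent and 10 min incubation.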

[5] = test system: A2780; experiment: Anti-proliferative effect (CellTiter-Glo, 72 h), A2780; type: cell-based; settings: A2780 cells, median, read-out: IC50 antiproliferation assay A2780 [M] (median)
In short: as §2

[6] = test system: MV-4-11; experiment: Anti-proliferative effect (CellTiter-Glo, 72 h), MV-4-11; type: cell-based; settings: MV-4-11 cells, median, read-out: IC50 antiproliferation assay MV-4-11 [M] (median)
Description: Assessment of the Anti-Proliferative Effect of Compounds in Different Cell Lines
The impact of compounds on the proliferation of different cell lines was assessed using the CellTiter-Glo® Luminescent Cell Viability reagent from Promega (G7573). Of note, SUDHL10 and SUDHL5 (DLBCL), NCI-H929 (Multiple Myeloma), A2780 (ovarian carcinoma) as well as MV-4-11(AML) cells are sensitive to MCL-1 inhibition.
In parallel, cells were plated in a reference (day 0) plate for time zero determination.
Rim wells were excluded. The cells were incubated for 72 h hours in a humidified incubator at 37° C. The day 0 plate was measured by adding 30 μl/well of CTG solution (CellTiter-Glo® Luminescent Cell Viability reagent, Promega G7573) to time zero wells in the reference plate followed by a 10 minutes incubation and luminescence reading at 0.1 ms, using the PHERAstar FS microplate reader (BMG Labtech).
After 72 h incubation, the treated plates were measured in the same way as the day 0 plate mentioned above.

[7] = test system: SUDHL5; experiment: Induction of cytotoxicity (CellTiter-Glo, 5 h), SUDHL5
[8] = test system: SUDHL10; experiment: Induction of cytotoxicity (CellTiter-Glo, 5 h), SUDHL10
[9] = Homo sapiens, SU-DHL-5, 72 h, 72 h
[10] = Homo sapiens, SU-DHL-5, 5 h, read-out: Cytotox SUDHL5 [M] (median), SUDHL5 cells, cytotoxicity induction, CellTiter-Glo, 5 h, median
[11] = Homo sapiens, SU-DHL10, 5 h, read-out: Cytotox SUDHL10 [M] (median), SUDHL10 cells, cytotoxicity induction, CellTiter-Glo, 5 h, median
[12] = read-out: Cytotox SUDHL5 [M] (median), SUDHL5 cells, cytotoxicity induction, CellTiter-Glo, 5 h incubation, median
[13] = read-out: Cytotox SUDHL10 [M] (median), SUDHL10 cells, cytotoxicity induction, CellTiter-Glo, 5 h incubation, median

Chain of MCL-1 (Q07820 whole entry): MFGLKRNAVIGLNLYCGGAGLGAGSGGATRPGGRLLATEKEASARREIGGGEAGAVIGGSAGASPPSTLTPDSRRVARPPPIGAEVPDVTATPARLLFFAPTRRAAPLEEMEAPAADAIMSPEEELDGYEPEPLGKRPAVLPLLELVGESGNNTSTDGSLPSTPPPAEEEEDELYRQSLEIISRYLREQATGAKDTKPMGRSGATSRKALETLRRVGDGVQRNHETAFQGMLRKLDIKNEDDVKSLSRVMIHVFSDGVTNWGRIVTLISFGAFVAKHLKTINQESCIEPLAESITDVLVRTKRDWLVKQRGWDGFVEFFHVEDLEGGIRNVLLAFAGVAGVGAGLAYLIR

IC50 [1] | EC50 ([2]; Homo sapiens, SU-DHL-5, 3 h) | EC50 ([3]; Homo sapiens, SU-DHL10, 3 h) | IC50 [4, 9] | IC50 ([5]; Homo sapiens, A2780, 72 h) | IC50 ([6]; Homo sapiens, MV4-11, 72 h) | IC50 [5] | EC50 [2] | IC50 ([4]; 72 h) | EC50 [3] | IC50 ([4]; 72 h incubation) | IC50 [6] | IC50 ([4]; Homo sapiens, SU-DHL-5, 72 h, 72 h incubation) | SMILES | IC50 [7, 10] | IC50 [8, 11] | IC50 [7, 12] | IC50 [8, 13] | IC50 ([8]; Homo sapiens, SU-DHL10, 5 h, read-out: Cytotox SUDHL10 [M] (median), SUDHL10 cells, cytotoxicity induction, CellTiter-Glo, 5 h incubation, median)
0.0331 µM | 27.4 µM | 21.3 µM | 5.42e-06 M | 6.58e-06 M | 1.31e-05 M | – | – | – | – | – | – | – | Cc1c2c(nn1C)COCCCCn1c(C(=O)O)c(CCCOc3cccc4cc(C(F)(F)F)ccc34)c3cccc-2c31 (racemic) [Example 310] | 2.36e-05 M | 1.75e-05 M | – | – | –
0.00308 µM | 17.7 µM | > 33 µM | 1.43e-05 M | > 3.3e-05 M | > 3.3e-05 M | – | – | – | – | – | – | – | Cc1nn(C)c2c1-c1cccc3c(CCCOc4cccc5c(Cl)cccc45)c(C(=O)O)n(c13)CCCCOC2 (racemic) [Example 316, (rac)-1-(3-((5-chloronaphthalen-1-yl)oxy)propyl)-10,12-dimethyl-4,5,6,7,9,10-hexahydropyrazolo[4′,3′:9,10][1,6]oxaazacycloundecino[8,7,6-hi]indole-2-carboxylic Acid] | 1.94e-05 M | > 3.3e-05 M | – | – | –
0.296 µM | > 33 µM | > 33 µM | > 3.3e-05 M | 2.73e-05 M | > 3.3e-05 M | > 3.3e-05 M | – | – | – | – | – | – | Cc1c2c(nn1C)COCCCCn1c(C(=O)O)c(CCc3cccc4ccccc34)c3cccc-2c31 (racemic) [Example 354, (rac)-2,3-dimethyl-7-[2-(naphthalen-1-yl)ethyl]-2,10,11,12,13,15-hexahydropyrazolo[4′,3′:9,10][1,6]oxazacycloundecino[8,7,6-hi]indole-8-carboxylic Acid] | > 3.3e-05 M | > 3.3e-05 M | – | – | –
1.51 µM | > 33 µM | > 33 µM | 3.2e-05 M | > 3.3e-05 M | > 3.3e-05 M | – | – | – | – | – | – | – | Cc1c2c(nn1C)COCCCCn1c(C(=O)O)c(CCc3ccc(C(F)(F)F)cc3)c3cccc-2c31 (racemic) [Example 355, (rac)-2,3-dimethyl-7-{2-[4-(trifluoromethyl)phenyl]ethyl}-2,10,11,12,13,15-hexahydropyrazolo[4′,3′:9,10][1,6]oxazacycloundecino[8,7,6-hi]indole-8-carboxylic Acid] | > 3.3e-05 M | > 3.3e-05 M | – | – | –
0.00943 µM | 27.8 µM | > 33 µM | 2.53e-05 M | > 3.3e-05 M | > 3.3e-05 M | – | > 33 µM | > 3.3e-05 M | – | – | – | – | Cc1c2c(nn1C)CNCCCCn1c(C(=O)O)c(CCCOc3cccc4ccccc34)c3cccc-2c31 (racemic) [Example 356, (rac)-2,3-dimethyl-7-[3-(naphthalen-1-yloxy)propyl]-10,11,12,13,14,15-hexahydro-2H-pyrazolo[3′,4′:8,9][1,6]diazacycloundecino[10,11,1-hi]indole-8-carboxylic Acid] | > 3.3e-05 M | > 3.3e-05 M | – | – | –
0.0409 µM | > 33 µM | > 33 µM | 3.27e-05 M | > 3.3e-05 M | 3.19e-05 M | – | – | – | – | – | – | – | Cc1c2c(nn1C)COCCCCn1c(C(=O)O)c(CCOc3ccc4ccccc4c3)c3cccc-2c31 (racemic) [Example 357, (rac)-2,3-dimethyl-7-[2-(naphthalen-2-yloxy)ethyl]-2,10,11,12,13,15-hexahydropyrazolo[4′,3′:9,10][1,6]oxazacycloundecino[8,7,6-hi]indole-8-carboxylic Acid] | > 3.3e-05 M | > 3.3e-05 M | – | – | –
0.00373 µM | – | – | – | 2.03e-05 M | 2.68e-06 M | – | 2.99 µM | – | 14 µM | 3.12e-06 M | – | – | COc1c2c(nn1C)COCCCCn1c(C(=O)O)c(CCCOc3cccc4ccccc34)c3cccc-2c31 (single isomer, unassigned) [Example 208, 3-methoxy-2-methyl-7-[3-(naphthalen-1-yloxy)propyl]-2,10,11,12,13,15-hexahydropyrazolo[4′,3′:9,10][1,6]oxazacycloundecino[8,7,6-hi]indole-8-carboxylate] | – | – | 2.63e-06 M | 9.98e-06 M | –
0.182 µM | – | – | – | – | – | > 3.3e-05 M | > 33 µM | – | > 33 µM | 1.48e-05 M | 2.33e-05 M | – | Cn1nc(COC2CC2)c2c1COCCCCn1c(C(=O)O)c(CCCOc3cccc4ccccc34)c3cccc-2c31 (single isomer, unassigned) [Example 215, 3-[(cyclopropyloxy)methyl]-1-methyl-7-[3-(naphthalen-1-yloxy)propyl]-1,10,11,12,13,15-hexahydropyrazolo[4′,3′:9,10][1,6]oxazacycloundecino[8,7,6-hi]indole-8-carboxylic Acid] | – | – | > 3.3e-05 M | > 3.3e-05 M | –
0.00251 µM | – | – | – | > 3.3e-05 M | – | 2.92e-05 M | 3.5 µM | – | 13.4 µM | 5.58e-06 M | 1.52e-05 M | – | Cn1nc(C(F)(F)F)c2c1COCCCCn1c(C(=O)O)c(CCCOc3cccc4ccccc34)c3cccc-2c31 (single isomer, unassigned) [Example 217, 1-methyl-7-[3-(naphthalen-1-yloxy)propyl]-3-(trifluoromethyl)-1,10,11,12,13,15-hexahydropyrazolo[4′,3′:9,10][1,6]oxazacycloundecino[8,7,6-hi]indole-8-carboxylic Acid] | – | – | 3.92e-06 M | 1.58e-05 M | –
0.559 µM | – | – | – | – | – | 2.52e-05 M | > 33 µM | – | > 33 µM | 1.71e-05 M | 3.05e-05 M | – | Cn1nc(C(F)(F)F)c2c1COCCCCn1c(C(=O)O)c(CCCOc3cccc4ccccc34)c3cccc-2c31 (single isomer, unassigned) [Example 218, 1-methyl-7-[3-(naphthalen-1-yloxy)propyl]-3-(trifluoromethyl)-1,10,11,12,13,15-hexahydropyrazolo[4′3′:9,10][1,6]oxazacycloundecino[8,7,6-hi]indole-8-carboxylic Acid] | – | – | 2.76e-05 M | > 3.3e-05 M | –
0.00323 µM | – | 22.4 µM | – | > 3.3e-05 M | 2.27e-05 M | – | 10.1 µM | – | > 33 µM | – | – | 1.05e-05 M | Cn1nc(CC(F)(F)F)c2c1COCCCCn1c(C(=O)O)c(CCCOc3cccc4ccccc34)c3cccc-2c31 (single isomer, unassigned) [Example 220, 1-methyl-7-[3-(naphthalen-1-yloxy)propyl]-3-(2,2,2-trifluoroethyl)-1,10,11,12,13,15-hexahydropyrazo[4′,3′:9,10][1,6]oxazacycloundecino[8,7,6-hi]indole-8-carboxylic acid-N-ethylethanamine Salt] | – | – | 9.69e-06 M | – | > 3.3e-05 M
